Assay results taken from patent US20130143929A1, “FUNGICIDAL IMIDAZOLES” (EI DU PONT DE NEMOURS AND COMPANY, priority 2010, published 2013).
Marks after values point to notes of the source that are not given here.

Assays:
Type in all cases: in vivo
[1] = system: Puccinia recondite f. sp. tritici (the causal agent of wheat leaf rust); experiment: Test A: wheat leaf rust, preventive spray on wheat seedlings, visual disease rating; conditions: for Test A rating (100 = 100% disease control, 0 = no disease control relative to the controls): wheat leaf rust, preventive spray on wheat seedlings, no asterisk (standard test suspension concentration, not 40 ppm); for Test A rating (% disease control, wheat leaf rust): 100 = 100% disease control
In short: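 This was a preventive test: Puccinia recondite f. sp. tritici inoculum was applied one day after compound spray to run-off. Test suspensions were made in 50/50 acetone/water with 250 ppm surfactant, at 200 ppm (800 g/ha equivalent) or 40 ppm. Visual ratings of % disease control relative to controls were made after 24 h of saturated humidity and 7 growth-chamber days, all at 20° C.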

[2] = system: Septoria tritici (the causal agent of wheat leaf blotch); experiment: Test B: wheat leaf blotch, preventive spray on wheat seedlings, visual disease rating; conditions: for Test B rating (100 = 100% disease control, 0 = no disease control relative to the controls): wheat leaf blotch, preventive spray on wheat seedlings, no asterisk (standard test suspension concentration, not 40 ppm); for Test B rating (% disease control, wheat leaf blotch): 100 = 100% disease control
In short: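 Preventive test: Septoria tritici spores applied one day after run-off spraying of seedlings (200 ppm equals 800 g/ha; some tests 40 ppm). After 48 h at 24 °C saturated atmosphere and 19 days at 20 °C, disease scored visually as % control relative to untreated plants.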

[3] = system: Botrytis cinerea (the causal agent of tomato Botrytis); experiment: Test C: tomato Botrytis, preventive spray on tomato seedlings, visual disease rating; conditions: for Test C rating (100 = 100% disease control, 0 = no disease control relative to the controls): tomato Botrytis, preventive spray on tomato seedlings, no asterisk (standard test suspension concentration, not 40 ppm); for Test C rating (% disease control, tomato Botrytis): 100 = 100% disease control
In short: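 Preventive test: B. cinerea spore inoculation one day after tomato seedlings were sprayed to run-off with compound suspended in 50/50 acetone–water plus 250 ppm surfactant. Plants held 48 h at 20° C in saturated air, then 3 days at 24° C; visual ratings scored 100 (full control) to 0 versus controls; some entries used 40 ppm.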

[4] = system: Blumeria graminis f. sp. tritici (also known as Erysiphe graminis f. sp. tritici, the causal agent of wheat powdery mildew); experiment: Test D: wheat powdery mildew, preventive spray on wheat seedlings, visual disease rating; conditions: for Test D rating (100 = 100% disease control, 0 = no disease control relative to the controls): wheat powdery mildew, preventive spray on wheat seedlings, no asterisk (standard test suspension concentration, not 40 ppm); for Test D rating (% disease control, wheat powdery mildew): 100 = 100% disease control
In short: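 Preventive test: seedlings sprayed to run-off and inoculated with powdery mildew spores one day later. Suspensions were made in 50/50 acetone/water with 250 ppm Trem 014 surfactant (200 ppm equals 800 g/ha). Visual ratings after 8 days at 20 °C give percent disease control versus controls.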

[5] = no asterisk: standard test suspension concentration, 0 = no control relative to controls
[6] = asterisk: 40 ppm test suspension, 0 = no control

SMILES | Test A rating (% disease control, wheat leaf rust) [1, 5] | Test B rating (% disease control, wheat leaf blotch) [2, 5] | Test C rating (% disease control, tomato Botrytis) [3, 5] | Test D rating (% disease control, wheat powdery mildew) [4, 5] | Test A rating (% disease control, wheat leaf rust) [1, 6] | Test B rating (% disease control, wheat leaf blotch) [2, 6] | Test C rating (% disease control, tomato Botrytis) [3, 6] | further results
Cc1nc(Br)c(C(O)c2c(F)cc(F)cc2F)n1-c1ccc(Cl)cc1Cl (stereo not drawn) [compound 365] | – | – | – | – | – | – | – | Test A rating (100 = 100% disease control, 0 = no disease control relative to the controls) [1]: 100%; Test B rating (100 = 100% disease control, 0 = no disease control relative to the controls) [2]: 100%; Test C rating (100 = 100% disease control, 0 = no disease control relative to the controls) [3]: 100%; Test D rating (100 = 100% disease control, 0 = no disease control relative to the controls) [4]: 64%
Cc1cc(F)ccc1C(O)c1c(Cl)nc(C)n1-c1c(Cl)cccc1Cl (stereo not drawn) [compound 366] | – | – | – | – | – | – | – | Test A rating (100 = 100% disease control, 0 = no disease control relative to the controls) [1]: 99%; Test B rating (100 = 100% disease control, 0 = no disease control relative to the controls) [2]: 100%; Test C rating (100 = 100% disease control, 0 = no disease control relative to the controls) [3]: 100%; Test D rating (100 = 100% disease control, 0 = no disease control relative to the controls) [4]: 97%
Cc1cc(F)ccc1C(O)c1c(Br)nc(C)n1-c1c(Cl)cccc1Cl (stereo not drawn) [compound 367] | – | – | – | – | – | – | – | Test A rating (100 = 100% disease control, 0 = no disease control relative to the controls) [1]: 98%; Test B rating (100 = 100% disease control, 0 = no disease control relative to the controls) [2]: 100%; Test C rating (100 = 100% disease control, 0 = no disease control relative to the controls) [3]: 96%; Test D rating (100 = 100% disease control, 0 = no disease control relative to the controls) [4]: 96%
Cc1cc(F)ccc1C(O)c1cnc(C)n1-c1c(F)cc(F)cc1Cl (stereo not drawn) [compound 368] | – | – | – | – | – | – | – | Test A rating (100 = 100% disease control, 0 = no disease control relative to the controls) [1]: 100%; Test B rating (100 = 100% disease control, 0 = no disease control relative to the controls) [2]: 100%; Test C rating (100 = 100% disease control, 0 = no disease control relative to the controls) [3]: 99%; Test D rating (100 = 100% disease control, 0 = no disease control relative to the controls) [4]: 0%
Cc1ncc(C(O)c2ccc(F)cc2Cl)n1-c1c(F)cc(F)cc1Cl (stereo not drawn) [compound 370] | – | – | – | – | – | – | – | Test A rating (100 = 100% disease control, 0 = no disease control relative to the controls) [1]: 100%; Test B rating (100 = 100% disease control, 0 = no disease control relative to the controls) [2]: 100%; Test C rating (100 = 100% disease control, 0 = no disease control relative to the controls) [3]: 100%; Test D rating (100 = 100% disease control, 0 = no disease control relative to the controls) [4]: 0%
Cc1ncc(C(O)c2ccc(Cl)cc2Cl)n1-c1c(F)cc(F)cc1Cl (stereo not drawn) [compound 371] | – | – | – | – | – | – | – | Test A rating (100 = 100% disease control, 0 = no disease control relative to the controls) [1]: 95%; Test B rating (100 = 100% disease control, 0 = no disease control relative to the controls) [2]: 100%; Test C rating (100 = 100% disease control, 0 = no disease control relative to the controls) [3]: 58%; Test D rating (100 = 100% disease control, 0 = no disease control relative to the controls) [4]: 0%
Cc1ncc(C(O)c2ccc(Cl)cc2)n1-c1ccc(F)cc1F (stereo not drawn) [compound 378] | 37% | 74% | 0% | 0% | – | – | – | –
Cc1cc(F)ccc1C(O)c1c(Br)nc(C)n1-c1ccc(F)cc1F (stereo not drawn) [compound 379] | 100% | 100% | 99% | 79% | – | – | – | –
Cc1nc(Br)c(C(O)c2ccc(Cl)cc2)n1-c1ccc(F)cc1F (stereo not drawn) [compound 380] | 98% | 100% | 100% | 0% | – | – | – | –
Cc1ncc(C(O)c2ccc(F)cc2F)n1-c1ccc(F)cc1F (stereo not drawn) [compound 381] | 88% | 97% | 0% | 0% | – | – | – | –
Cc1nc(Br)c(C(O)c2ccc(F)cc2F)n1-c1ccc(F)cc1F (stereo not drawn) [compound 382] | 100% | 100% | 99% | 0% | – | – | – | –
Cc1nc(Cl)c(C(O)c2ccc(F)cc2Br)n1-c1c(F)cccc1F (stereo not drawn) [compound 383] | – | – | – | – | 100* % | 100* % | 99* % | Test D rating (% disease control, wheat powdery mildew) [4, 6]: 92* %
Cc1nc(Br)c(C(O)c2ccc(F)cc2Br)n1-c1c(F)cccc1F (stereo not drawn) [compound 384] | – | – | – | – | 100* % | 100* % | 65* % | Test D rating (% disease control, wheat powdery mildew) [4, 6]: 72* %
Cc1nc(Cl)c(C(O)c2ccc(F)cc2Br)n1-c1c(F)cccc1Cl (stereo not drawn) [compound 386] | – | – | – | – | 100* % | 100* % | 100* % | Test D rating (% disease control, wheat powdery mildew) [4, 6]: 73* %
Cc1nc(Br)c(C(O)c2ccc(F)cc2Br)n1-c1c(F)cccc1Cl (stereo not drawn) [compound 387] | – | – | – | 90% | 100* % | 100* % | 99* % | –
Cc1nc(Cl)c(C(O)c2ccc(F)cc2F)n1-c1c(F)cccc1Cl (stereo not drawn) [compound 389] | – | – | – | 98% | 100* % | 100* % | 100* % | –
COc1cc(F)c(-n2c(C)nc(Br)c2C(O)c2ccc(F)cc2C)c(F)c1 (stereo not drawn) [compound 391] | – | – | – | – | 99* % | 100* % | 0* % | Test D rating (% disease control, wheat powdery mildew) [4, 6]: 0* %
COc1cc(F)c(-n2c(C)nc(Br)c2C(O)c2ccc(F)cc2Cl)c(F)c1 (stereo not drawn) [compound 392] | – | – | – | – | 99* % | 100* % | 0* % | Test D rating (% disease control, wheat powdery mildew) [4, 6]: 0* %
Cc1nc(Br)c(C(O)c2ccc(F)cc2F)n1-c1c(F)cccc1Br (stereo not drawn) [compound 393] | 100% | 100% | 100% | 97% | – | – | – | –
Cc1nc(Br)c(C(O)c2ccc(F)cc2F)n1-c1c(F)cc(F)cc1Br (stereo not drawn) [compound 394] | 100% | 100% | 100% | 72% | – | – | – | –
Cc1cc(F)ccc1C(O)c1cnc(C)n1-c1ccc(F)cc1Cl (stereo not drawn) [compound 395] | 99% | 100% | 21% | 35% | – | – | – | –
Cc1ncc(C(O)c2ccc(F)cc2F)n1-c1ccc(F)cc1Cl (stereo not drawn) [compound 396] | 100% | 100% | 87% | 0% | – | – | – | –
Cc1cc(F)ccc1C(O)c1c(Br)nc(C)n1-c1ccc(F)cc1Cl (stereo not drawn) [compound 397] | 100% | 100% | 100% | 73% | – | – | – | –
Cc1cc(F)ccc1C(O)c1c(Cl)nc(C)n1-c1ccc(F)cc1Cl (stereo not drawn) [compound 398] | 100% | 100% | 46% | 0% | – | – | – | –
Cc1nc(Br)c(C(O)c2ccc(F)cc2F)n1-c1ccc(F)cc1Cl (stereo not drawn) [compound 399] | 100% | 100% | 99% | 90% | – | – | – | –
Cc1nc(Br)c(C(O)c2ccc(F)cc2F)n1-c1c(F)cccc1Cl (stereo not drawn) [compound 400] | – | – | – | – | 100* % | 100* % | 100* % | Test D rating (% disease control, wheat powdery mildew) [4, 6]: 100* %
COc1cc(F)c(-n2c(C)nc(Cl)c2C(O)c2ccc(F)cc2Cl)c(F)c1 (stereo not drawn) [compound 403] | – | – | – | – | 99* % | 100* % | 8* % | Test D rating (% disease control, wheat powdery mildew) [4, 6]: 0* %
Cc1cc(F)ccc1C(O)c1cnc(C)n1-c1c(F)cccc1Br (stereo not drawn) [compound 405] | 99% | 94% | 9% | 0% | – | – | – | –
Cc1cc(F)ccc1C(O)c1c(Br)nc(C)n1-c1c(F)cccc1Br (stereo not drawn) [compound 406] | 100% | 100% | 43% | 56% | – | – | – | –
Cc1cc(F)ccc1C(O)c1c(Cl)nc(C)n1-c1c(F)cccc1Br (stereo not drawn) [compound 407] | 99% | 100% | 52% | 0% | – | – | – | –
